The text below walks through data of the Kinase Knowledgebase extract (Sharma et al. 2016).

SMILES strings stand for the structures.

The target in experiment [1] is MAPK14 (murine). As to the kind of experiment: Inhibition of MAPK14 Kinase Activity.
The target in experiment [2] is MAPK14 (human) (UniProt Q16539). As to the kind of experiment: Inhibition of LPS Induced TNF-alpha Release in Human PBMC.
Sequence of MAPK14 (human) (Q16539 whole entry, looked up): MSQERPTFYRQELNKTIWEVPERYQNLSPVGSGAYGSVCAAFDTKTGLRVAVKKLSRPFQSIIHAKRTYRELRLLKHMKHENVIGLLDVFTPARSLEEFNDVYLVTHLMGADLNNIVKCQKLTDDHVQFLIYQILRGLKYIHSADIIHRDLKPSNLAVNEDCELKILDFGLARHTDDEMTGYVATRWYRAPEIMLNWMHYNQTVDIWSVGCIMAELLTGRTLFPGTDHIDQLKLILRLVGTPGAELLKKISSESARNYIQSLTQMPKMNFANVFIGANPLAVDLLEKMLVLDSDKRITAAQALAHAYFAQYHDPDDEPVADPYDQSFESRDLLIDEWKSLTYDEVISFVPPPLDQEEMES

What is called IC50 is the concentration that gives 50% inhibition. A high value points to lower potency. Regarding `CN1CCC(O)(c2nc(-c3ccc(F)cc3)c(-c3ccncc3)o2)CC1`, the half-inhibitory concentration (IC50) in experiment [1] came to 0.35 µM.
As to `C[C@@H](Nc1nccc(-n2c(-c3ccc(F)cc3)nc3nc(N4CCN(C)CC4)ccc32)n1)c1ccccc1`, the IC50 is 0.006 µM in experiment [1] and 0.001 µM in experiment [2].
On to `CN1CCC(O)(c2nc(-c3ccc(F)cc3)c(-c3ccncc3)[nH]2)CC1`, for which, in experiment [1], the IC50 amounted to 0.09 µM.
For `Fc1ccc(-c2nc(C3CCNCC3)oc2-c2ccnc(NC3CCCCC3)c2)cc1`, the half-maximal inhibitory concentration (IC50) in experiment [1] came to 0.015 µM; in experiment [2], 0.0002 µM.
Turning to `CN1CCC(O)(c2nc(-c3ccc(F)cc3)c(-c3ccncc3)s2)CC1`, the IC50 in experiment [1] amounted to 0.45 µM.
For `Fc1ccc(-c2nc(C3CCNCC3)oc2-c2ccnc(NC3CCCCC3)n2)cc1`, the IC50 in experiment [1] is 0.011 µM; in experiment [2], 0.009 µM.
In turn, `C[C@H](Nc1cc(-c2sc(C3CCNCC3)nc2-c2ccc(F)cc2)ccn1)c1ccccc1` came in with an IC50 in experiment [1] of 0.004 µM.
